From PMC11042424, “Development of a First-in-Class RIPK1 Degrader to Enhance Antitumor Immunity” (Research Square, 2024)
“Also recorded” adds a separate entry of the source. Like-named read-outs stand apart in the source and are kept apart here.

Assays:
[1] = Pharmacokinetics in C57BL/6J mice; assay type: in vivo; conditions: mouse, plasma
Experimental: Next, we evaluated the pharmacokinetics (PK) of LD4172 in C57BL/6J (B6) mice (Fig. 4A).
Figure 4 LD4172 synergizes with Anti-PD1 to inhibit tumor growth. A, Plasma concentrations of LD4172 in C57BL/6J mice administered 1 mg/kg intravenously (i.v.) or 10 mg/kg intraperitoneally (i.p.) (n=4). B, Representative immunoblots of RIPK1 in different tissues of C57BL/6J mice treated with LD4172 (n=3–4). C, Densitometric analysis of RIPK1 protein levels in different tissues (n=3 or 4). D, Representative immunoblots of RIPK1 levels of B16F10 cells transduced with gRNA specific for RIPK1 or non-targetable control (sgNC). E, B16F10-RIPK1-KO tumors sensitized to anti-PD1 treatment: 3×10^5 B16F10 cells transduced with gRNA specific for RIPK1 or non-targetable control (sgNC) were inoculated into C57BL/6J mice. After seven days, mice with measurable tumors (~100 mm3) were randomly treated with or without anti-PD1 in vivo (100 μg per dose, i.p., every three days, n=8). F, Tumor growth curve of mice with B16F10 tumors treated with LD4172 and/or anti-PD1 (n=8). C57B6/J mice were subcutaneously inoculated with 3×10^5 B16F10 tumor cells. After seven days (tumor size ~ 100 mm3), mice were treated every three days with anti- PD1 (100 μg per dose, i.p.), daily with LD4172 (20 mg/kg, i.p.), a combination of LD4172 and anti-PD1 (same dose as their individual doses), or their corresponding vehicle control. G, Kaplan-Meier survival curve for all experimental groups. H, Final tumor weight (g) from F after 22d of treatment (n=8). I, Representative images of B16F10 tumors collected at the end of treatment. J, Mouse body weight (n=8). K, Tumor growth curve of mice with B16F10 tumors treated with T2I and/or anti-PD1 (n=8). The experimental conditions and treatment regimens were the same as F except using the RIPK1 kinase inhibitor T2I (20 mg/kg, i.p.) to replace LD4172. Representative data from at least three independent experiments are shown. Data are expressed as the mean ± SEM. * p<0.05; ** p<0.01; *** p<0.001, **** p<0.0001, respectively. ns, indicates no statistical significance.

[2] = Stability in human primary hepatocytes; assay type: in vitro ADME
[3] = system: whole cellular proteome of MDA-MB-231 cells; test: Proteome profiling of LD4172 induced protein degradation; assay type: cell-based, human; conditions: 200 nM, 6 h
Experimental: One million MDA-MB-231 cells were seeded in 6-well plates. The following day, cells were treated in triplicate with LD4172 (200 nM) or LD4172-NC (200 nM) for 6 h. The cells were washed thrice with ice-cold PBS. The cell pellets were lysed, reduced, alkylated, and digested using EasyPep™ MS Sample Prep Kits (A45733,ThermoFisher) according to the manufacturer’s instructions. The same amount of peptide from each condition was labeled with a tandem mass tag (TMT) reagent (90113, ThermoFisher). The 10-plex TMT reagent was incubated with each peptide sample at a ratio of 1:8 (peptide:TMT label). The 10-plex labeling reactions were performed for 1 h at room temperature. The labeled peptide samples were quenched by adding 50 μL of 5% hydroxylamine and 20% formic acid solution for 5 min and then mixed. […]
Proteome Discoverer 2.4 (Thermo Fisher Scientific) was used. RAW file processing and controlling peptide- and protein-level false discovery rates, assembling proteins from peptides, and protein quantification from peptides. […] PSMs with precursor isolation interference values > 50% and average TMT-reporter ion signal-to-noise values (S/N) < 10 were excluded from quantitation. […] Protein quantification uses both unique and […] peptides. […]

Molecule `Cc1ncsc1-c1ccc([C@H](C)NC(=O)[C@@H]2C[C@@H](O)CN2C(=O)[C@@H](NC(=O)CCCCCCCCCCC(=O)NCCCn2cc(-c3ccc4c(c3)CCN4C(=O)Cc3cccc(OC(F)(F)F)c3)c3c(N)ncnc32)C(C)(C)C)cc1` [LD4172] has a bioavailability ([1]; intraperitoneal, i.p. 10 mg/kg vs i.v. 1 mg/kg) of 39%, an AUC ([1]; ip, 10 mg/kg i.p., read-out: AUC) of 2.7 µM·h and a Cmax ([1]; ip, 10 mg/kg i.p., read-out: Cmax) of 2.9 µM. For the same molecule, the half-life ([1]; ip, 10 mg/kg i.p., read-out: t1/2 (converted)) was 1.5 h, the clearance ([1]; iv, 1 mg/kg i.v.) was 19.8 ± 1.8 mL/min/kg and the AUC ([1]; iv, 1 mg/kg i.v., read-out: area under the concentration-time curve (AUC)) was 0.7 ± 0.07 µM·h. For the same molecule, the half-life ([1]; iv, 1 mg/kg i.v., read-out: half-life (t1/2) (converted)) was 3.3 ± 2.1 h, the Cmax ([1]; iv, 1 mg/kg i.v., read-out: maximum plasma concentration (Cmax)) was 6.3 ± 0.8 µM and the Vd ([1]; iv, 1 mg/kg i.v., read-out: volume of distribution (Vd)) was 1.1 ± 0.2 L/kg. The half-life [2] was 0.938 h, the “degradation of off-target kinases” value [3] was “no degradation of off-target kinases was observed” and the “proteins degraded in whole cellular proteome” value ([3]; vs LD4172-NC) was “only protein showing >50% degradation; also recorded: RIPK1 was the only protein degraded”.
